Reference: BindingDB's records for doi:10.1002/cbic.201000339 (University of York, 2010)

Target: T1, Alpha-fucosidase-like protein (Bacteroides thetaiotaomicron (strain ATCC 29148 / DSM 2079 / JCM 5827 / CCUG 10774 / NCTC 10582 / VPI-5482 / E50), UniProt Q8ABG8)
T1 sequence (Q8ABG8 whole entry): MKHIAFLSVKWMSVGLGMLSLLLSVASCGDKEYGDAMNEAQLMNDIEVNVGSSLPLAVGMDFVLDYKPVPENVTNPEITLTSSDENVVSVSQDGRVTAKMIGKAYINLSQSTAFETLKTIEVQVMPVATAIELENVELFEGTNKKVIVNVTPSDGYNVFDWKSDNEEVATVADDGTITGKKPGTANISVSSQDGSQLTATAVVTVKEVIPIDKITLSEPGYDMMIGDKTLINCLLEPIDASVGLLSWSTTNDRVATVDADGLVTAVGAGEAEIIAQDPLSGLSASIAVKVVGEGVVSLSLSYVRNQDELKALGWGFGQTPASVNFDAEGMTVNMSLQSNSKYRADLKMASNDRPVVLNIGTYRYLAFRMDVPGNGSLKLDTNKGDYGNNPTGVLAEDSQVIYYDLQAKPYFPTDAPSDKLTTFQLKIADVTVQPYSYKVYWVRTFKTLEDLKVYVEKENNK
Test: Enzyme Assay
Details: 37 °C
Protocol: The kinetic studies involving a spectrophotometric product were conducted by monitoring the change in UV/visible absorbance with a Cintra 10 spectrophotometer.

| Kd (pH 6) | Kd (pH 6.5) | Kd (pH 8.5) | SMILES |
| --- | --- | --- | --- |
| 14.8 nM | 27 nM | 372 nM | C[C@@H]1NC[C@@H](O)[C@H](O)[C@@H]1O |
| 46.6 nM |  | 157 nM | CC1NC(CNC(=O)c2cccc3c2C(=O)c2ccccc2-3)C(O)C(O)C1O (stereo not given) [Fucosidase Inhibitor, 4] |
